Laboratory results as given in the NIST ThermoML archive (doi:10.1016/j.fluid.2016.08.002).

Assay: xn = mol fraction of the nth substance listed
Details: Gas, Vibrating tube method

S [hydrogen sulfide] + C
Details | mass density [kg/m3]
273.16 K, 19608 kPa, x2 = 0.714 | 336.94
273.16 K, 22152 kPa, x2 = 0.714 | 354.18
273.16 K, 22483 kPa, x2 = 0.714 | 356.27
273.17 K, 12519 kPa, x2 = 0.8197 | 177.81
273.18 K, 22828 kPa, x2 = 0.714 | 358.14
273.19 K, 21199 kPa, x2 = 0.714 | 347.78
273.19 K, 24981 kPa, x2 = 0.714 | 368.95
273.2 K, 20623 kPa, x2 = 0.714 | 344.02
273.2 K, 23590 kPa, x2 = 0.714 | 362.19
273.21 K, 209 kPa, x2 = 0.8685 | 1.7
273.21 K, 648 kPa, x2 = 0.8685 | 5.39
273.21 K, 21506 kPa, x2 = 0.714 | 349.84
273.22 K, 26410 kPa, x2 = 0.714 | 375.25
273.23 K, 20100 kPa, x2 = 0.714 | 340.42
273.23 K, 25533 kPa, x2 = 0.714 | 371.48
273.24 K, 1167 kPa, x2 = 0.8685 | 10
273.24 K, 1761 kPa, x2 = 0.8685 | 15.44
273.24 K, 27020 kPa, x2 = 0.714 | 377.85
273.25 K, 2240 kPa, x2 = 0.8685 | 19.97
273.25 K, 3776 kPa, x2 = 0.8685 | 35.41
273.25 K, 11361 kPa, x2 = 0.8685 | 140.37
273.25 K, 24591 kPa, x2 = 0.714 | 367.01
273.25 K, 26031 kPa, x2 = 0.714 | 373.67
273.25 K, 30481 kPa, x2 = 0.8685 | 300.13
273.26 K, 2770 kPa, x2 = 0.8685 | 25.12
273.26 K, 4666 kPa, x2 = 0.8685 | 45.13
273.26 K, 5086 kPa, x2 = 0.8685 | 49.93
273.26 K, 11062 kPa, x2 = 0.8685 | 135.65
273.26 K, 11726 kPa, x2 = 0.8685 | 146.08
273.26 K, 12002 kPa, x2 = 0.8685 | 150.33
273.26 K, 12322 kPa, x2 = 0.8685 | 155.19
273.26 K, 12637 kPa, x2 = 0.8685 | 159.86
273.26 K, 13040 kPa, x2 = 0.8685 | 165.72
273.26 K, 27255 kPa, x2 = 0.8685 | 285.03
273.26 K, 28276 kPa, x2 = 0.8685 | 290.05
273.26 K, 29372 kPa, x2 = 0.8685 | 295.19
273.27 K, 3280 kPa, x2 = 0.8685 | 30.25
273.27 K, 4207 kPa, x2 = 0.8685 | 40.03
273.27 K, 4225 kPa, x2 = 0.8685 | 40.23
273.27 K, 9149 kPa, x2 = 0.8685 | 105.29
273.27 K, 9851 kPa, x2 = 0.8685 | 116.33
273.27 K, 13466 kPa, x2 = 0.8685 | 171.7
273.27 K, 13771 kPa, x2 = 0.8685 | 175.85
273.27 K, 24569 kPa, x2 = 0.8685 | 270.52
273.27 K, 25361 kPa, x2 = 0.8685 | 275.02
273.27 K, 26319 kPa, x2 = 0.8685 | 280.21
273.28 K, 5512 kPa, x2 = 0.8685 | 54.98
273.28 K, 5933 kPa, x2 = 0.8685 | 60.12
273.28 K, 8496 kPa, x2 = 0.8685 | 95.31
273.28 K, 9596 kPa, x2 = 0.8685 | 112.28
273.28 K, 10137 kPa, x2 = 0.8685 | 120.88
273.29 K, 8136 kPa, x2 = 0.8685 | 89.96
273.29 K, 8809 kPa, x2 = 0.8685 | 100.05
273.29 K, 10446 kPa, x2 = 0.8685 | 125.82
273.29 K, 10749 kPa, x2 = 0.8685 | 130.66
273.29 K, 23690 kPa, x2 = 0.8685 | 265.29
273.3 K, 6333 kPa, x2 = 0.8685 | 65.17
273.3 K, 14847 kPa, x2 = 0.8685 | 189.62
273.31 K, 6712 kPa, x2 = 0.8685 | 70.1
273.31 K, 7200 kPa, x2 = 0.8685 | 76.68
273.31 K, 7483 kPa, x2 = 0.8685 | 80.6
273.31 K, 7817 kPa, x2 = 0.8685 | 85.33
273.31 K, 15329 kPa, x2 = 0.8685 | 195.37
273.31 K, 22905 kPa, x2 = 0.8685 | 260.37
273.32 K, 15811 kPa, x2 = 0.8685 | 200.85
